Among the data in the RepoRT retention time repository (doi:10.1016/j.chroma.2015.11.014) are LC retention time values, retold here.

Molecules are shown by their SMILES.

The series is described as follows: RP, Agilent ZORBAX Eclipse Plus C18, 150 × 2.1 mm, 3.5 µm, 40 °C, 0.3 mL/min, estimated dead time 1.1 min; A: water + 0.1% formic acid; B: acetonitrile + 0.1% formic acid; gradient (min/%B) 0/2 1/2 2/20 16.5/98 22/98. To be noted: stereoisomer not certain.

With `CC(C)CC(C)(O)C#CC(C)(O)CC(C)C` (stereo not given), the LC retention time was 12.4 min.

Consider `O=P(O)(OCc1ccccc1)OCc1ccccc1`, for which the LC retention time was 9.05 min.

With `CCOC(=O)c1ccc(O)c([N+](=O)[O-])c1`, the LC retention time was 10.7 min.

With `CCCCCCCC[N+](C)(C)CCCCCCCC`, the LC retention time is 11.7 min.

As for `CCCC1OC2CC3C4CCC5=CC(=O)C=CC5(C)C4C(O)CC3(C)C2(C(=O)CO)O1` (stereo not given), the LC retention time was 11 min.

Consider `CCCN(CCC)C(=O)SCc1ccccc1`, for which the LC retention time is 15.5 min.

Regarding `CC(C)(C)P(C(C)(C)C)C(C)(C)C`, the LC retention time is 5.22 min.

With `COC(=O)CCCCCCCCC(=O)OC1CC(C)(C)N(C)C(C)(C)C1`, the LC retention time is 8.34 min.

With `CN(C)CCC=C1c2ccccc2COc2ccccc21`, the LC retention time is 7.45 min.

`CCCCC1C(=O)N(c2ccccc2)N(c2ccccc2)C1=O`: the LC retention time was 13.1 min.

For the molecule `CC(NC(CCc1ccccc1)C(=O)O)C(=O)C1CCCN1C(=O)O` (stereo not given), the LC retention time was 5.84 min.

Turning to `N=C(N)c1ccc(OCCCCCCOc2ccc(C(=N)N)cc2)cc1`, the LC retention time is 5.92 min.

Take `O=P(O)(O)Oc1ccccc1`: the LC retention time is 3.47 min.

`CCN(CC)CC(=O)Nc1c(C)cccc1C`: the LC retention time was 5.77 min.

With `CCCCCCN1C=CN(C)C1`, the LC retention time is 5.73 min.

`CCCCCCCCN`: the LC retention time was 6.9 min.

`CC12CCC(=O)C=C1CCC1C2C(O)CC2(C)C1CCC2(O)C(=O)CO` (stereo not given): the LC retention time is 8.32 min.

In the case of `CCOc1nc2cccc(C(=O)O)c2n1Cc1ccc(-c2ccccc2-c2nn[nH]n2)cc1`, the LC retention time was 10 min.

In the case of `CC(Cn1cnc2c(N)ncnc21)OCP(=O)(O)O` (stereo not given), the LC retention time was 2.77 min.

In the case of `CNC(=O)Oc1cccc2c1OC(C)(C)C2`, the LC retention time was 9.75 min.

Regarding `CCN(CC)C(=O)c1cccc(C)c1`, the LC retention time was 10.4 min.

On to `COc1cc(Cc2cnc(N)nc2N)cc(OC)c1OC`, for which the LC retention time was 5.11 min.

`CNNCc1ccc(C(=O)NC(C)C)cc1`: the LC retention time is 4.91 min.

As for `CNC(=O)C(=NOC)c1ccccc1COc1cc(C)ccc1C`, the LC retention time was 13.2 min.

Take `CCC(C(=O)O)N1CCCC1=O` (stereo not given): the LC retention time is 5.7 min.

Turning to `CCCCCCCCCCCCCC[N+](C)(C)C`, the LC retention time is 11.5 min.

`Cc1cc2n[nH]nc2cc1C`: the LC retention time is 8.01 min.

Regarding `CCCCCCCCCCCCOCC[N+](C)(C)Cc1ccccc1`, the LC retention time is 12.7 min.

As for `Nc1ccc(O)c(C(=O)O)c1`, the LC retention time was 2.18 min.

As to `CSc1nc(NC2CC2)nc(NC(C)(C)C)n1`, the LC retention time was 10.2 min.

For the molecule `CCCCP(=O)(CCCC)CCCC`, the LC retention time was 11.1 min.

Consider `CCP(=O)(c1ccccc1)c1ccccc1`, for which the LC retention time is 8.82 min.

For `CCCCCCCCCCCCCCN(C)C`, the LC retention time is 11.4 min.

For the molecule `CNC(=O)ON=CC(C)(C)SC`, the LC retention time was 8.4 min.

Regarding `O=S(=O)(O)c1ccc2ccccc2c1`, the LC retention time was 7.09 min.

For `c1ccc([P+](CCC2OCCCO2)(c2ccccc2)c2ccccc2)cc1`, the LC retention time was 7.98 min.

In the case of `CN1C(C)(C)CC(OC(=O)CCCCCCCCC(=O)OC2CC(C)(C)N(C)C(C)(C)C2)CC1(C)C`, the LC retention time was 6.48 min.

`CSCC1OC(n2cnc3c(N)ncnc32)C(O)C1O` (stereo not given): the LC retention time was 4.79 min.

Consider `CN(CC=CC#CC(C)(C)C(=O)O)Cc1cccc2ccccc12`, for which the LC retention time is 7.45 min.

`CCOc1ccc(C[P+](c2ccccc2)(c2ccccc2)c2ccccc2)cc1`: the LC retention time is 9.45 min.

For `NC(=O)N1c2ccccc2CCc2ccccc21`, the LC retention time is 9.23 min.

Turning to `COc1cc(N)nc(OC)n1`, the LC retention time was 4.66 min.

For `Cc1cc(C2CCCCC2)n(O)c(=O)c1`, the LC retention time is 4.49 min.

As for `Nc1nc2c(ncn2C2OC(CO)C(O)C2O)c(=O)[nH]1` (stereo not given), the LC retention time is 3.15 min.

`c1ccc([P+](c2ccccc2)(c2ccccc2)C2CC2)cc1`: the LC retention time is 7.79 min.

For the molecule `COC(=O)Nc1nc2ccc(Sc3ccccc3)cc2[nH]1`, the LC retention time was 9.95 min.

For `O=C1CC2(CCCCC2)CN1`, the LC retention time is 7.59 min.

For `CC(C)(c1ccc(OP(=O)(Oc2ccccc2)Oc2ccccc2)cc1)c1ccc(OP(=O)(Oc2ccccc2)Oc2ccccc2)cc1`, the LC retention time is 17.7 min.

With `CC1(C)CCCC(C)(C)N1O`, the LC retention time is 10.4 min.

For `COCCCOc1cc(CC(CC(N)C(O)CC(C(=O)NCC(C)(C)C(N)=O)C(C)C)C(C)C)ccc1OC` (stereo not given), the LC retention time was 8.2 min.

As to `CC(C(=O)O)c1cccc(C(=O)c2ccccc2)c1` (stereo not given), the LC retention time is 10.9 min.

`CC(C)[P+](c1ccccc1)(c1ccccc1)c1ccccc1`: the LC retention time was 7.72 min.

As to `CCCCCCCCCCCCOS(=O)(=O)O`, the LC retention time was 14.9 min.

In the case of `c1ncc2[nH]cnc2n1`, the LC retention time was 2.57 min.

With `COC1C(OC(C)=O)CC(=O)OC(C)CC=CC=CC(O)C(C)CC(CC=O)C1OC1OC(C)C(OC2CC(C)(O)C(OC(=O)CC(C)C)C(C)O2)C(N(C)C)C1O` (stereo not given), the LC retention time is 8.87 min.

Take `CSc1ccc2c(c1)N(CCC1CCCCN1C)c1ccccc1S2` (stereo not given): the LC retention time was 9.47 min.

For `c1ccc(Nc2ccc(Nc3ccccc3)cc2)cc1`, the LC retention time was 14.5 min.

For the molecule `N#CC(C(=O)O)=C(c1ccccc1)c1ccccc1`, the LC retention time was 13.7 min.

On to `c1ccc2sc(C3CCCNC3)nc2c1` (stereo not given), for which the LC retention time was 5.62 min.

As for `COc1ccc(O)cc1`, the LC retention time was 6.96 min.

Regarding `COC(=O)C1C2CC3c4[nH]c5cc(OC)ccc5c4CCN3CC2CC(OC(=O)c2cc(OC)c(OC)c(OC)c2)C1OC` (stereo not given), the LC retention time was 8.6 min.

In the case of `NC(=O)CN1CCCC1=O`, the LC retention time was 2.62 min.

As for `CCCC(=NOCC)C1=C(O)CC(CC(C)SCC)CC1=O` (stereo not given), the LC retention time is 16.1 min.

Consider `COC(=O)C1CCC(=O)N1` (stereo not given), for which the LC retention time was 4.58 min.

For `O=C(O)c1cc(N=Nc2ccc(S(=O)(=O)Nc3ccccn3)cc2)ccc1O`, the LC retention time was 9.22 min.

Turning to `CCNc1nc(NC(C)(C)C)nc(S(C)=O)n1` (stereo not given), the LC retention time was 8.82 min.

On to `CCCCOP(=O)(O)OCCCC`, for which the LC retention time was 8.01 min.

`CCC(C)(C)C(=O)OC1CC(CO)C=C2C=CC(C)C(CCC3CC(O)CC(=O)O3)C21` (stereo not given): the LC retention time was 10.8 min.

As to `CCC1OC(=O)C(C)C(OC2CC(C)(OC)C(O)C(C)O2)C(C)C(OC2OC(C)CC(N(C)C)C2O)C(C)(O)CC(C)C(=O)C(C)C(O)C1(C)O` (stereo not given), the LC retention time was 7.85 min.

`O=c1[nH]cnc2[nH]ncc12`: the LC retention time is 3.15 min.

Consider `Cn1cnc2[nH]c(=O)[nH]c(=O)c21`, for which the LC retention time was 4.44 min.

As for `C[N+](C)([O-])CCOC(c1ccccc1)c1ccccc1`, the LC retention time is 8.07 min.

Regarding `CN(C)c1ccc(C(=C2C=CC(N(C)C)C=C2)c2ccccc2)cc1` (stereo not given), the LC retention time was 9.29 min.

Take `CC(O)C(=O)Nc1ccccc1` (stereo not given): the LC retention time was 6.61 min.

For the molecule `CCCCCCCC[N+](CCCCCCCC)(CCCCCCCC)CCCCCCCC`, the LC retention time is 16.2 min.

For `Cc1cccc(N(C)C(=S)Oc2ccc3ccccc3c2)c1`, the LC retention time is 15.5 min.

As to `CC12CC3CC(C)(C1)CC(N)(C3)C2`, the LC retention time is 6.65 min.

Consider `CCC1CCCC(OC2CCC(N(C)C)C(C)O2)C(C)C(=O)C2=CC3C(C=CC4CC(OC5OC(C)C(OC)C(OC)C5OC)CC43)C2CC(=O)O1` (stereo not given), for which the LC retention time was 10.4 min.

Regarding `COc1cc(-c2oc3cc(O)cc(O)c3c(=O)c2O)ccc1O`, the LC retention time was 9.42 min.

In the case of `CC(=O)Nc1cc(N)cc(C(=O)O)c1`, the LC retention time was 4.46 min.

In the case of `CCCc1nc(C(C)(C)O)c(C(=O)O)n1Cc1ccc(-c2ccccc2-c2nn[nH]n2)cc1`, the LC retention time was 7.36 min.

On to `CC(C)(C)OC(=O)C[P+](c1ccccc1)(c1ccccc1)c1ccccc1`, for which the LC retention time is 8.83 min.

As to `CC12CCC(=O)C=C1CCC1C2CCC2(C)C1CCC2(C)O` (stereo not given), the LC retention time is 11.6 min.

Regarding `N#CSCSc1nc2ccccc2s1`, the LC retention time is 12.4 min.

On to `O=C1CN(N=Cc2ccc([N+](=O)[O-])o2)C(=O)N1`, for which the LC retention time is 6.22 min.

Consider `CCN1CCN(C(=O)NC(C(=O)NC2C(=O)N3C(C(=O)O)=C(CSc4nnnn4C)CSC23)c2ccc(O)cc2)C(=O)C1=O` (stereo not given), for which the LC retention time is 6.86 min.

`CC(=O)Nc1c(C)n(C)n(-c2ccccc2)c1=O`: the LC retention time is 5.59 min.

For the molecule `O=C(O)CC1(C(=O)O)CCCCC1`, the LC retention time was 7.49 min.

With `COC(=O)CCCC[P+](c1ccccc1)(c1ccccc1)c1ccccc1`, the LC retention time is 8.3 min.

As for `Cc1c(NC=O)c(=O)n(-c2ccccc2)n1C`, the LC retention time was 5.62 min.

For `CN(C)Cc1ccccc1`, the LC retention time was 4.42 min.

For the molecule `NC(=O)N1c2ccccc2C2OC2c2ccccc21` (stereo not given), the LC retention time was 7.59 min.

On to `O=P(Cc1ccccc1)(c1ccccc1)c1ccccc1`, for which the LC retention time is 10.8 min.

In the case of `O=P(Oc1ccccc1)(Oc1ccccc1)Oc1ccccc1`, the LC retention time was 14.1 min.

With `CCCC[N+](CCCC)(CCCC)Cc1ccccc1`, the LC retention time was 9.13 min.

`COC(=O)NN=Cc1c[n+]([O-])c2ccccc2[n+]1[O-]`: the LC retention time is 5.82 min.

For `NCC(O)COc1ccccc1` (stereo not given), the LC retention time was 4.75 min.

On to `CN(CC=CC#CC(C)(C)C)Cc1cccc2ccccc12`, for which the LC retention time was 9.65 min.

For the molecule `CCCCCCCCOc1ccc(C(=O)c2ccccc2)c(O)c1`, the LC retention time was 19 min.

Take `COC(=O)Nc1nc2ccccc2[nH]1`: the LC retention time is 5.08 min.
